# Experimental data taken from patent US20250170105A1, “ASSOCIATION WITH ANTIBIOTIC ACTIVITY, PHARMACEUTICAL COMPOSITIONS CONTAINING IT AND THEIR USE IN THE TREATMENT OF INFECTIONS” (VETAGRO INTERNATIONAL S.R.L., priority 2022, published 2025).
# Columns and labels:
# Assay type in all cases: cell-based
# Escherichia coli K88 97 [1] = assay: Combination test, checkerboard, % inhibition; conditions: E. coli 97
# Description: (§1) Strains were stored at −80° C. in appropriate media with glycerol, thawed and cultured according to conventional practices.
# (§2) The tests were conducted using the microdilution method in a 96-well plate to be microtitered with the medium and culture conditions appropriate for the strains. Bacterial strains (10^5-10^6 CFU/ml) were incubated with the compounds to be tested, while control strains, when necessary, were grown in media containing 3.5% ethanol to exclude an inhibitory effect of any ethanol present in the stock solutions. After incubation, MIC was defined as the lowest concentration resulting in zero absorbance at 630 nm, recorded with Varioskan® LUX Multimode Microplat Reader (Thermo Fisher Scientific). For each test, the percentage of inhibition (%) was calculated with respect to the relative control.
# (§3) After phase 1, the strains were tested with associations at sub-effective doses of AB and OA or NIC in a 2×2 checkerboard model. Specifically, two sub-effective doses of AB were associated with two sub-effective doses of OA or NIC (half and one-quarter of MICs) as shown in FIG. 1.
# (§4) The % indicate the percentage of inhibition (compounds alone and combinations).
# (§5) Tables 4 to 7 show the % of inhibition of the components of the associations alone, at the effective concentrations shown in Tables 2 and 3, and at the sub-effective concentrations (half and one-quarter of MICs), and the % of inhibition of the associations.
# Escherichia Coli K88 95 [2] = assay: Combination test, checkerboard, % inhibition; conditions: E. coli 95
# Description: as §1, §2, §3, §4, §5
# Streptococcus suis 702 [3] = assay: Combination test, checkerboard, % inhibition; conditions: S. suis 702
# Description: as §1, §2, §3, §4, §5
# Streptococcus suis 701 [4] = assay: Combination test, checkerboard, % inhibition; conditions: S. suis 701
# Description: as §1, §2, §3, §4, §5
# Escherichia coli K88 97 [5] = assay: Individual tests, microdilution MIC; conditions: E. coli 97; for MIC: Escherichia coli, K8897, read-out: MIC values
# Description: as §1
# (§6) The ABs shown in Tables 2 and 3 below, all obtained from Aplha Aesar, were tested. The OAs used are shown in Tables 2 and 3 below, all obtained from Merck. The stock solutions were prepared appropriately and in appropriate way and media for the different strains and could contain 3.5% ethanol to increase solubility.
# as §2
# (§7) ABs were tested in the range 64-0.13 ppm, OAs in the range […] and NICs in the range 7.5-0.06 nM.
# Escherichia Coli K88 95 [6] = assay: Individual tests, microdilution MIC; conditions: E. coli 95; for MIC: Escherichia coli, COLIK8895, read-out: MIC values
# Description: as §1, §6, §2, §7
# Streptococcus suis 702 [7] = assay: Individual tests, microdilution MIC; conditions: S. suis 702; for MIC: Streptococcus suis, read-out: MIC values
# Description: as §1, §6, §2, §7
# Streptococcus suis 701 [8] = assay: Individual tests, microdilution MIC; conditions: S. suis 701; for MIC: Streptococcus suis, read-out: MIC values
# Description: as §1, §6, §2, §7
compound,measurement,setting,value
"C/C=C/C=C/C(=O)O [Sorbic Acid, sorbic acid]",% inhibition,Escherichia coli K88 97 [1]; SOR 12.5 mM alone,79%
same,% inhibition,Escherichia coli K88 97 [1]; SOR 25 mM alone,93%
same,% inhibition,Escherichia Coli K88 95 [2]; SOR 12.5 mM alone,69%
same,% inhibition,Escherichia Coli K88 95 [2]; SOR 25 mM alone,85%
same,% inhibition,Streptococcus suis 702 [3]; SOR 12.5 mM alone,26%
same,% inhibition,Streptococcus suis 702 [3]; SOR 25 mM alone,38%
same,% inhibition,Streptococcus suis 701 [4]; SOR 25 mM alone,30%
same,% inhibition,Streptococcus suis 701 [4]; SOR 50 mM alone,56%
same,MIC,Escherichia coli K88 97 [5],50 mM
same,MIC,Escherichia Coli K88 95 [6],50 mM
same,MIC,Streptococcus suis 702 [7],50 mM
same,MIC,Streptococcus suis 701 [8],100 mM
Cc1cc(NS(=O)(=O)c2ccc(N)cc2)no1 [Sulfamethoxazole],MIC,Escherichia coli K88 97 [5],> 608 µg/mL
same,MIC,Escherichia Coli K88 95 [6],> 608 µg/mL
"CN(C)[C@@H]1C(O)=C(C(N)=O)C(=O)[C@@]2(O)C(O)=C3C(=O)c4c(O)cccc4[C@@](C)(O)[C@H]3C[C@@H]12 [Tetracycline, tetracycline, reference compound]",% inhibition,Streptococcus suis 702 [3]; TET 0.5 ppm alone,20%
same,% inhibition,Streptococcus suis 702 [3]; TET 1 ppm alone,27%
same,% inhibition,Streptococcus suis 701 [4]; TET 16 ppm alone,11%
same,% inhibition,Streptococcus suis 701 [4]; TET 32 ppm alone,28%
same,MIC,Escherichia coli K88 97 [5],> 64 µg/mL
same,MIC,Escherichia Coli K88 95 [6],> 64 µg/mL
same,MIC,Streptococcus suis 702 [7],2 µg/mL
same,MIC,Streptococcus suis 701 [8],64 µg/mL
"Cc1ccc(C(C)C)c(O)c1 [Thymol, 2-isopropyl-5-methylphenol]",% inhibition,Escherichia coli K88 97 [1]; THY 0.47 mM alone,8%
same,% inhibition,Escherichia coli K88 97 [1]; THY 0.94 mM alone,12%
same,% inhibition,Escherichia Coli K88 95 [2]; THY 0.47 mM alone,7%
same,% inhibition,Escherichia Coli K88 95 [2]; THY 0.94 mM alone,18%
same,% inhibition,Streptococcus suis 702 [3]; THY 0.47 mM alone,10%
same,% inhibition,Streptococcus suis 702 [3]; THY 0.94 mM alone,36%
same,% inhibition,Streptococcus suis 701 [4]; THY 0.47 mM alone,0%
same,% inhibition,Streptococcus suis 701 [4]; THY 0.94 mM alone,39%
same,MIC,Escherichia coli K88 97 [5],1.87 mM
same,MIC,Escherichia Coli K88 95 [6],1.87 mM
same,MIC,Streptococcus suis 702 [7],1.87 mM
same,MIC,Streptococcus suis 701 [8],1.87 mM
C=C[C@]1(C)C[C@@H](OC(=O)CSCCN(CC)CC)[C@]2(C)[C@H](C)CC[C@]3(CCC(=O)[C@H]32)[C@@H](C)[C@@H]1O [Tiamulin],MIC,Streptococcus suis 702 [7],1 µg/mL
same,MIC,Streptococcus suis 701 [8],4 µg/mL
COc1cc(Cc2cnc(N)nc2N)cc(OC)c1OC [Trimethoprim],MIC,Escherichia coli K88 97 [5],> 32 µg/mL
same,MIC,Escherichia Coli K88 95 [6],> 32 µg/mL
CC[C@H]1OC(=O)C[C@@H](O)[C@H](C)[C@@H](O[C@@H]2O[C@H](C)[C@@H](O[C@H]3C[C@@](C)(O)[C@@H](O)[C@H](C)O3)[C@H](N(C)C)[C@H]2O)[C@@H](CC=O)C[C@@H](C)C(=O)/C=C/C(C)=C/[C@@H]1CO[C@@H]1O[C@H](C)[C@@H](O)[C@@H](OC)[C@H]1OC [Tylosin],MIC,Streptococcus suis 702 [7],> 64 µg/mL
same,MIC,Streptococcus suis 701 [8],2 µg/mL
Penicillin,MIC values,Streptococcus suis 702 [7],0.13 ppm
same,MIC values,Streptococcus suis 701 [8],0.13 ppm
colistin [reference compound],% inhibition,Escherichia coli K88 97 [1]; COL 4 ppm alone,10%
same,% inhibition,Escherichia coli K88 97 [1]; COL 8 ppm alone,12%
same,% inhibition,Escherichia coli K88 97 [1]; COL 16 ppm alone,29%
same,% inhibition,Escherichia Coli K88 95 [2]; COL 4 ppm alone,3%
same,% inhibition,Escherichia Coli K88 95 [2]; COL 8 ppm alone,8%
same,% inhibition,Escherichia Coli K88 95 [2]; COL 16 ppm alone,40%
same,MIC values,Escherichia coli K88 97 [5],32 ppm
same,MIC values,Escherichia Coli K88 95 [6],32 ppm
neomycin [reference compound],% inhibition,Streptococcus suis 702 [3]; NEO 4 ppm alone,10%
same,% inhibition,Streptococcus suis 702 [3]; NEO 8 ppm alone,16%
same,% inhibition,Streptococcus suis 701 [4]; NEO 2 ppm alone,6%
same,% inhibition,Streptococcus suis 701 [4]; NEO 4 ppm alone,15%
same,MIC values,Escherichia coli K88 97 [5],>64 ppm
same,MIC values,Escherichia Coli K88 95 [6],>64 ppm
same,MIC values,Streptococcus suis 702 [7],16 ppm
same,MIC values,Streptococcus suis 701 [8],8 ppm
